Data reported in patent US9840481B2, “Allosteric modulators of nicotinic acetylcholine receptors” (MERCK SHARP & DOHME CORP., priority 2016, dated 2017).
Like-named read-outs stand apart in the source and are kept apart here.

Target: T1, human α7 nAChR stably expressed in a HEK cell line (with human RIC-3) (Homo sapiens, UniProt P36544)
T1 construct: PrecisION hnAChR α7/RIC-3
Assay: Automated patch-clamp electrophysiology functional assay (Assay A), IonFlux HT, whole-cell population patch
Type: cell-based
Experimental: The α7 nAChR positive allosteric modulator (PAM) activity of the present compounds may be tested using assays known in the art. The α7 nAChR PAMs described herein have activities in an automated patch-clamp electrophysiology functional assay as described in the examples. The assay was performed using the IonFlux HT in a whole-cell, population patch configuration. See Golden et al. Assay Drug Dev. Technol. (2011) 9:608-619. The compounds were assessed for their ability to modulate the function of the human α7 nAChR stably expressed in a HEK cell line both in the presence, and in the absence of the natural α7 agonist acetylcholine. By performing a series of such measurements at different concentrations, the effective concentration of the α7 nAChR PAMs (EC50) was determined. See Spencer et al. Assay Drug Dev. Technol. (2012) 10:313-324.
Direct activation of α7 (agonism), and potentiation of 5 acetylcholine-evoked α7 currents was determined as follows:
Automated Patch-Clamp Electrophysiology Functional Assay (Assay A)
Automated patch-clamp electrophysiology was performed using the IonFlux HT (Fluxion Biosciences Inc., San Francisco, Calif.) in the whole-cell, population patch configuration. Test compounds were assessed for their ability to modulate the function of the α7 nicotinic acetylcholine receptor both in the presence, and in the absence of the natural α7 agonist acetylcholine. A HEK cell line stably expressing both human RIC-3 and human α7 (PrecisION hnAChR α7/RIC-3, Eurofins Pharma, St. Charles, Mo.) was cultured in 175 cm^2 triple-layer tissue culture flasks to no more than 90% confluency in DMEM/F-12 growth media supplemented with 10% heat-inactivated fetal bovine serum, 1% non-essential amino acids, 0.625 μg/mL Puromycin, and 400 μg/mL Geneticin. Immediately prior to assay, cells were detached by first aspirating growth media, rinsing with Dulbecco's phosphate buffered saline, and then adding 10 mL of Accutase (Innovative Cell Technologies, San Diego, Calif.) to the flask and then incubating at 37° C. for 5 minutes. Detached cells were then recovered by the addition of 40 mL of CHO-serum-free media supplemented with 25 mM HEPES, and rocked gently in a 50 mL conical tube for 20 minutes prior to patch-clamp assay. After recovery, cells were pelleted by centrifugation at 1,000 RPM for 1 minute in a compact bench top centrifuge; recovery media was aspirated and cells were resuspended in external recording solution (150 mM NaCl, 5 mM KCl, 2 mM CaCl2, 1 mM MgCl2, 10 mM HEPES, 12 mM dextrose) to a density of 5.0×10^6 cells/mL. The cell suspension was added to the cell inlet wells on an IonFlux HT population patch plate which had previously been rinsed and primed with deionized H2O. Test compounds were serially diluted in DMSO and then resuspended to the final test concentration in external recording solution, with, or without […] acetylcholine added to the external recording solution; test compounds were then transferred to the IonFlux HT population patch plate. Internal recording solution (110 mM TrisPO4, 28 mM TrisBase, 0.1 mM CaCl2, 2 mM MgCl2, 11 mM EGTA, 4 mM MgATP) was added to the internal recording solution inlet wells on the IonFlux HT patch plate previously loaded with cells and test compounds, and the plate loaded into the IonFlux HT instrument. A protocol was executed on the IonFlux HT to trap the cells, break into the cells, and establish the whole-cell recording configuration; cells were voltage-clamped at a holding potential of −60 mV for the duration of the experiment, all experiments were conducted at room temperature, and the IonFlux HT injection pressure was 8 psi for solution applications. Upon establishing the whole-cell configuration, external recording solution was perfused into the recording chambers for 120 seconds and then 40 μM acetylcholine was applied for 1 second and immediately washed off with external recording solution for 60 seconds. […]

[1] = automated patch-clamp electrophysiology functional assay (Assay A), potency class by EC50, read-out: α7 nAChR Potency
[2] = electrophysiology EC50, HEK cells expressing human α7/RIC-3, 40 μM acetylcholine, holding potential −60 mV, room temperature, read-out: α7 nAChR EC50

T1 sequence (P36544 23-502): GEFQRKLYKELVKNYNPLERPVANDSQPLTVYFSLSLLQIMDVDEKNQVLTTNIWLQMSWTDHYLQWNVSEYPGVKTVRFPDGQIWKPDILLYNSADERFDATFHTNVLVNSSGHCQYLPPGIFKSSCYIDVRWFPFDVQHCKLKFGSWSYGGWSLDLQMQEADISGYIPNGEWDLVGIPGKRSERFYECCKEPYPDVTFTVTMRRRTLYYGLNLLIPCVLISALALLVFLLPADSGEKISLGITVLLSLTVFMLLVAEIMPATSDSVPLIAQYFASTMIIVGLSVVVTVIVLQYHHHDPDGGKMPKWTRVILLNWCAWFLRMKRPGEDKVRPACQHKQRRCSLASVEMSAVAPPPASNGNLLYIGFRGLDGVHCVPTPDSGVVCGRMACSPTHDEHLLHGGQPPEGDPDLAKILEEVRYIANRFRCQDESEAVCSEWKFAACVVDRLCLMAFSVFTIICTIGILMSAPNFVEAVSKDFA

SMILES	EC50 [1] [nM]	EC50 [2] [nM]
NS(=O)(=O)c1ccc([C@@H]2C[C@H]2c2nc(-c3cccc(F)c3)cs2)cc1 [Example 14, 4-{(1R,2R)-2-[4-(3-Fluorophenyl)-1,3-thiazol-2-yl]cyclopropyl}benzenesulfonamide]	100 to 500	200
CC1(C)[C@@H](c2ccc(S(N)(=O)=O)cc2)[C@@H]1c1noc(-c2cccc(C3CC3)c2)n1 [Example H9]	500 to 5000	1400
CC1(C)C(c2ccc(S(N)(=O)=O)cc2)C1c1noc(C2CC3CN(C4CCCC4)C(=O)C3C2)n1 (stereo not shown) [Example I24]	500 to 5000	4400
CC1(C)[C@@H](c2ccc(S(N)(=O)=O)cc2)[C@@H]1c1noc(C2(c3cnccn3)CC2)n1 [Example I12]	500 to 5000	
CC1(C)[C@@H](c2ccc(S(N)(=O)=O)cc2)[C@@H]1c1nnc(C2CCCC2)s1 [Example G14]	500 to 5000	920
NS(=O)(=O)c1ccc([C@@H]2C[C@H]2c2nsc(N3CCCCC3)n2)cc1 [Example 29, 4-{(1R,2R)-2-[5-(Piperidin-1-yl)-1,2,4-thiadiazol-3-yl]cyclopropyl}benzenesulfonamide]	100 to 500	140
CC1(C)[C@H](c2ccc(S(N)(=O)=O)cc2)[C@H]1c1nc(-c2ccccc2C(F)(F)F)no1 [Example A13]	500 to 5000	
NS(=O)(=O)c1ccc([C@H]2C[C@@H]2c2nc(-c3cncc(F)c3)no2)cc1 [Example B5]	5000 to 50000	
CC1(C)[C@@H](c2ccc(S(N)(=O)=O)cc2)[C@@H]1c1cn(-c2ccccc2)nn1 [Example L7]	500 to 5000	
NS(=O)(=O)c1ccc([C@@H]2C[C@H]2c2cnc(C3CCCCC3)o2)cc1 [Example 28, 4-[(1R,2R)-2-(2-Cyclohexyl-1,3-oxazol-5-yl)cyclopropyl]benzenesulfonamide]	100 to 500	460
CC1(C)[C@@H](c2ccc(S(N)(=O)=O)cc2)[C@@H]1c1nc(C2CC2)no1 [Example D9]	100 to 500	
CC1(C)[C@H](c2ccc(S(N)(=O)=O)cc2)[C@H]1c1cn(-c2cccc(F)c2)nn1 [Example L5]	500 to 5000	770
CC1(C)[C@@H](c2ccc(S(N)(=O)=O)cc2)[C@@H]1c1ncc(C2CCCC2)o1 [Example K14]	500 to 5000	
CC1(C)[C@@H](c2ccc(S(N)(=O)=O)cc2)[C@@H]1c1nnc(-c2cccnc2C2CC2)o1 [Example G12]	500 to 5000	
CC1(C)[C@@H](c2ccc(S(N)(=O)=O)cc2)[C@@H]1c1nc(-c2ccc(F)cc2C(F)(F)F)no1 [Example C2]	500 to 5000	
CC1(C)[C@H](c2ccc(S(N)(=O)=O)cc2)[C@H]1c1nc(C2CCC2)no1 [Example B3]	5000 to 50000	8700
Cc1ncoc1-c1nc([C@H]2[C@H](c3ccc(S(N)(=O)=O)cc3)C2(C)C)no1 [Example I7]	500 to 5000	710
Cc1ncccc1-c1noc([C@H]2C[C@@H]2c2ccc(S(N)(=O)=O)cc2)n1 [Example B6]	5000 to 50000	7700
CC1(C)[C@H](c2ccc(S(N)(=O)=O)cc2)[C@H]1c1nc(C2CC(F)(F)C2)no1 [Example B8]	500 to 5000	
Cc1nc([C@@H]2C[C@H]2c2ccc(S(N)(=O)=O)cc2)sc1-c1ccccc1 [Example 16, 4-[(1R,2R)-2-(4-Methyl-5-phenyl-1,3-thiazol-2-yl)cyclopropyl]benzenesulfonamide]	≤ 100	98
Cc1ncccc1-c1noc([C@H]2[C@H](c3ccc(S(N)(=O)=O)cc3)C2(C)C)n1 [Example D15]	500 to 5000	
CC1(C)[C@H](c2ccc(S(N)(=O)=O)cc2)[C@H]1c1nc(-c2ccccc2F)no1 [Example A12]	500 to 5000	

SMILES	EC50 [1] [nM]	EC50 [2] [nM]
CC1(C)[C@H](c2ccc(S(N)(=O)=O)cc2)[C@H]1c1nc(-c2c(F)cccc2F)no1 [Example A11]	500 to 5000	960
Cc1ccc(-c2noc([C@@H]3C[C@H]3c3ccc(S(N)(=O)=O)cc3)n2)cc1 [Example C19]	500 to 5000	510
CC1(C)[C@@H](c2ccc(S(N)(=O)=O)cc2)[C@@H]1c1nc(-c2cnccc2C(F)(F)F)no1 [Example D2]	500 to 5000	
CC1(C)[C@H](c2ccc(S(N)(=O)=O)cc2)[C@H]1c1noc(N2CCCCC2)n1 [Example L20]	500 to 5000	1300
NS(=O)(=O)c1ccc([C@@H]2C[C@H]2c2noc(-c3cncc(F)c3)n2)cc1 [Example I36]	500 to 5000	1400
CC1C(c2ccc(S(N)(=O)=O)cc2)C1c1nc(-c2ccccc2)no1 (single isomer, unassigned; diastereomer 4) [Example 22, 4-(2-Methyl-3-(3-phenyl-1,2,4-oxadiazol-5-yl)cyclopropyl)benzenesulfonamide, diastereomer 4]	100 to 500	120
CC1(C)[C@@H](c2ccc(S(N)(=O)=O)cc2)[C@@H]1c1noc(-c2cc(N3CCOC3=O)ccc2F)n1 [Example H7]	500 to 5000	2400
CC1(C)[C@@H](c2ccc(S(N)(=O)=O)cc2)[C@@H]1c1nc(C2CCCC2)no1 [Example D20]	≤ 100	69
CC1(C)[C@@H](c2ccc(S(N)(=O)=O)cc2)[C@@H]1c1noc(-c2c(F)cc(F)cc2F)n1 [Example H3]	100 to 500	130
NS(=O)(=O)c1ccc([C@@H]2C[C@H]2c2nc(-c3cc(F)ccc3F)no2)cc1 [Example C16]	100 to 500	160
NS(=O)(=O)c1ccc([C@@H]2C[C@H]2c2nsc(C3CCCCC3)n2)cc1 [Example L11]	100 to 500	
NS(=O)(=O)c1ccc([C@H]2[C@H](c3nc(C4CCCCC4)cs3)C2(F)F)cc1 [Example K19]	100 to 500	160
NS(=O)(=O)c1ccc([C@@H]2C[C@H]2c2nc(-c3cncc(F)c3)no2)cc1 [Example D12]	500 to 5000	800
NS(=O)(=O)c1ccc([C@@H]2[C@@H](c3nc(-c4cccc(F)c4)no3)C2(Cl)Cl)cc1 (relative stereo) [Example 36, 4-{trans-2,2-Dichloro-3-[3-(3-fluorophenyl)-1,2,4-oxadiazol-5-yl]cyclopropyl}benzenesulfonamide]	100 to 500	470
CC1(C)[C@@H](c2ccc(S(N)(=O)=O)cc2)[C@@H]1c1noc(-c2cscn2)n1 [Example I6]	500 to 5000	
CC1(C)[C@@H](c2ccc(S(N)(=O)=O)cc2)[C@@H]1c1noc(C2CC(O)C2)n1 (stereo partly shown) [Example I30]	500 to 5000	3800
CC1(C)[C@@H](c2ccc(S(N)(=O)=O)cc2)[C@@H]1c1nnc(-c2cccc(F)c2)o1 [Example G3]	500 to 5000	740
CC1(C)[C@H](c2ccc(S(N)(=O)=O)cc2)[C@H]1c1nnc(-c2c(F)cccc2C(F)(F)F)o1 [Example F3]	500 to 5000	4700
NS(=O)(=O)c1ccc(C2C(c3nc(-c4ccccc4)no3)C23CCCC3)cc1 (single isomer, unassigned) [Example M3]	≤ 100	83
CC1(C)[C@@H](c2ccc(S(N)(=O)=O)cc2)[C@@H]1c1nnc(C2CCCC2)o1 [Example G10]	500 to 5000	630
CC1(C)[C@@H](c2ccc(S(N)(=O)=O)cc2)[C@@H]1c1nc(-c2ccccc2F)co1 [Example K1]	100 to 500	
NS(=O)(=O)c1ccc([C@H]2[C@H](c3nc(-c4ccccc4)no3)C2(F)F)cc1 [Example C21]	≤ 100	83
